Two compounds from patent publication US20230203095A1, “BIOLOGICAL PEPTIDE FOR TREATING LUNG DISEASES AND APPLICATION THEREOF” (SHANGHAI INSTITUTE OF PHARMACEUTICAL INDUSTRY CO., LTD., priority 2019, published 2023) can be followed below.

Where “and” joins values, the source holds several entries; their conditions need not be identical. Equal entries are not always repeated. Where two headings read alike, the source gives them in different places.

Usually AUC(0-inf) stands for the area under the concentration-time curve extrapolated to infinity. A low value points to less exposure. The AUC(0-t) is the area under the concentration-time curve up to a stated or last time point. Lower therefore signals less exposure. One may read the Cmax as the maximum level reached in the sampled fluid or tissue. As a reminder, the half-life is how long it takes for the measured level to halve. Low values mean rapid decline, high ones slow decline.

Data set [1] deals with COPD model rats. Briefly: Lung function (200 ms pulmonary ventilation) in smoking + LPS COPD model rats. Type of data set: in vivo, SD rats. As to conditions: 5 mg/kg body weight/day, aerosol, once a day for 4 weeks.
A short description of data set [2]: Plasma drug concentrations and pharmacokinetics after a single subcutaneous injection of SP peptide or SIPI-D00 peptide in SD rats. Type of data set: in vivo. As to the method: Route: Single back subcutaneous injection;
Dosage of the drug: SP peptide and SIPI-D00 peptide were prepared into 3.33 mg/mL solution with normal saline, the dosage of SP peptide by back subcutaneous injection was 10 mg/kg body weight, and the dosage of SIPI-D00 peptide by back subcutaneous injection was 5 mg/kg body weight. […]

The test system of data set [3] is serum IgE. Briefly: Serum IgE level in OVA-induced allergic asthma model mice. Type of data set: in vivo, BALB/c mice. As to conditions: days 19-28, n=10. As to the method:
(§1) The first batch: mice were divided into groups, 10 mice in each group, namely: blank control group (normal saline), model group (OVA, 20 ug/mouse), SP peptide group (administered dose of 175 µg/kg body weight/day, 350 µg/kg body weight/day, respectively), SIPI-D00 peptide group (administered dose of 175 µg/kg body weight/day, 350 µg/kg body weight/day), and dexamethasone group (administered dose of 2 mg/kg body weight/day).
OVA for sensitization was dissolved in sterile PBS solution at a final concentration of 0.2 mg/mL, then an equal volume of aluminum hydroxide adjuvant was added. After shaking for 30 minutes, each mouse was intraperitoneally injected with 0.2 mL (20 µg OVA per mouse).
2% OVA solution was prepared in sterile PBS. The 2% OVA was nebulized with a nebulizer, and the mice were placed in the nebulizer inhalation box for 30 minutes per day.
According to the dosage, SP peptide and SIPI-D00 were dissolved in normal saline respectively, and administered by subcutaneous administration on the back according to the body weight of the animals.
(§2) Mice in the model group, SP peptide group, SIPI-D00 peptide group and dexamethasone group were sensitized by intraperitoneal injection of OVA (20 µg OVA/mice) on day 0, 7, and 14, and challenged by aerosol administration of OVA (once a day for 5 consecutive days) on day 21-25 to construct asthmatic model animals. Mice in the model group were given normal saline on days 21-28; mice in different doses of SP peptide group and SIPI-D00 peptide group were injected subcutaneously with different doses of SP and SIPI-D00 on days 19-28; mice in dexamethasone group were injected intraperitoneally with 2 mg/kg/day dexamethasone on days 21-28. At the same time, 10 mice in the blank control group were fed normally from day 0 to day 28 without any treatment, and were given normal saline as a blank control.
After 28 days, blood was collected from the inner canthus of the mouse, and the serum was collected, and the IgE level in the serum was measured with an ELISA kit. […]
(§3) At the same time, 10 mice in the blank control group were fed normally from day 0 to day 28 without any treatment, and were given normal saline as a blank control.

The subject of data set [4] is OVA-induced asthma model mice. Briefly: Lung pathology (H&E) of OVA-induced asthma model mice. The note with it: after 28 days. Type of data set: in vivo, BALB/c mice. As to the method:
as §1, §2
After 28 days, the mouse lung tissue was taken out, fixed in 4% formaldehyde, embedded in paraffin, sectioned, and stained with H&E for pathological observation.
The first batch: mice were divided into groups, 10 mice in each group, namely: blank control group (normal saline), model group (OVA, 20 ug/mice), and SP peptide group (administered dose of 175 µg/kg body weight/day, 350 µg/kg body weight/day, respectively), SIPI-G5 peptide group (administered dose of 175 µg/kg body weight/day, 350 µg/kg body weight/day), dexamethasone group (administered dose of 2 mg/kg body weight/day).
as §3

Data set [5] is described as follows: Stability of each 7-peptide compound in rat whole blood. Type of data set: in vitro ADME. As to conditions: rat whole blood, 37° C., 1000 ng/mL, read-out: Recovery rate (%) M±SD. As to the method: Preparation of the test product: SP and SIPI-D00 were dissolved and diluted with an appropriate amount of 50% acetonitrile water containing 0.1% formic acid to obtain a working solution with a concentration of 200 µg/mL.
• 1) Fresh rat whole blood was added to the EP tube, and shaken gently to mix well; • 2) The EP tube was pre-incubated in a 37° C. water bath for 5 minutes; • 3) Each compound was added to start the reaction and continued to incubate at 37° C.; • 4) 50 µL sample was taken from the sample tube at 0, 2 min, 5 min, 10 min, 30 min, and 60 min, respectively, into the stop tube, 50 µL of ice-cold 7% perchloric acid was added, and shaken to stop the reaction; • 5) Sample was centrifuged at 13000 r/min for 10 min, 75 µL supernatant was aspirated, 60 µL1.25% ammonia water was added and mixed well. After filtered with […] microporous membrane, 20 µL sample was taken for LC-MS/MS analysis.

Data set [6] concerns ConA-stimulated mouse splenocytes. Briefly: Secretion of IL-4 from mouse splenocytes stimulated by ConA (ELISA). Type of data set: cell-based, BALB/C mice. The note with it: for IL-4 levels of polypeptides: ConA 5 µg/mL, 24 h. On the procedure:
(§4) Three BALB/C mice were sacrificed by cervical dislocation after anesthesia. Then mice were immersed in 75% ethanol for 5 minutes. After dissection and spleen extraction, spleen lymphocytes were prepared. […] Different concentrations of test substances were added to each well, and duplicate wells were set for each concentration, and the final concentration of ConA was 5 µg/mL. The plate was incubated in a 37° C. 5% CO2 incubator for 24 h, the drug-containing cell suspension was aspirated from each well, then centrifuged at 200 g for 15 min at 4° C. The supernatant was taken, and mouse IL-4 Elisa kit was used to detect IL- 4 content.
as §4, with “each concentration was” for “duplicate wells were”, “up as triple wells,” for “for each concentration,”, “kit (mouse IL-4 Elisa kit)” for “kit”
Background: An ELISA detects its analyte on a solid surface through an enzyme-linked reagent.

With `CCCC1O[C@@H]2C[C@H]3[C@@H]4CCC5=CC(=O)C=C[C@]5(C)[C@H]4[C@@H](O)C[C@]3(C)[C@]2(C(=O)CO)O1` (some centres unmarked) [Budesonide, budesonide], in data set [1], the “200 ms pulmonary ventilation” value was 77.17 ± 11.20 mL and the “Percentage of 200 ms pulmonary ventilation (%)” value was determined as 465.8±77.8 %.
In data set [2] (SP peptide 10 mg/kg s.c., SD rats, time 0 min, parallels 1-4), “H-GQTYTSG-OH [SP, GQTYTSG, reference compound]” gave a Plasma concentration of 0 ng/mL. Also, the level at 0.5 min in data set [2] (male, SD, rat, plasma, sc, 10 mg/kg, SP peptide 10 mg/kg s.c., SD rats, time 0.5 min, parallels 1-4, read-out: Plasma concentration) was 74.2 ng/mL. In data set [2] (rat, in vivo, sc, 10 mg/kg), this compound gave a total exposure AUC(0-inf) of 11.9 ng·h/mL. Besides, in data set [2] (rat, in vivo, sc, 10 mg/kg), the AUC(0-t) was 11.9 ng·h/mL. Further, the Cmax in data set [2] (rat, in vivo, sc, 10 mg/kg) was determined as 210 ± 21.6 ng/mL. In data set [2] (rat, in vivo, sc, 10 mg/kg), this compound registered a half-life of 8.65 ± 1.79 min. The “Serum IgE level (OD450)” value in data set [3] (175 ug/kg/day subcutaneous) was 0.634 ± 0.078 OD450 and 0.634 + OD450; in data set [3] (350 ug/kg/day subcutaneous), 0.595 ± 0.041 OD450 and 0.595 + OD450. Besides, the “lung pathology, H&E” value in data set [4] (high-dose group (350 µg/kg body weight/day)) and in data set [4] (low-dose group (175 µg/kg body weight/day)) was “some inflammatory cells are found in the airway mucosa” throughout. The recovery stood at 100% in data set [5] (incubation time 0 min); 64.1 ± 7.6% in data set [5] (incubation time 2 min); 41.3 ± 6.8% in data set [5] (incubation time 5 min); 28.5 ± 0.9% in data set [5] (incubation time 10 min); 4.93 ± 0.7% in data set [5] (incubation time 30 min); 1.67 ± 0.5% in data set [5] (incubation time 60 min). For the same compound, the “Inhibitory rate of polypeptide on IL-4 secretion” value is reported as 33.90% in data set [6] (peptide concentration 1 µg/mL), 42.51% in data set [6] (peptide concentration 3 µg/mL), 50.21% in data set [6] (peptide concentration 10 µg/mL) and 52.15% in data set [6] (peptide concentration 30 µg/mL). Moreover, the “IL-4 levels of polypeptides” value in data set [6] (peptide concentration 1 µg/mL) came to 14.28 ± 0.51 pg/mL; in data set [6] (peptide concentration 3 µg/mL), 12.42 ± 0.34 pg/mL; in data set [6] (peptide concentration 10 µg/mL), 10.76 ± 2.55 pg/mL; in data set [6] (peptide concentration 30 µg/mL), 10.34 ± 0.27 pg/mL.
